Experimental data: patent US20240116896A1 (ATAI Life Sciences AG, priority 2022, published 2024)

Tests used:
5-HT2A = 5-HT2A (Homo sapiens, UniProt P28223); assay: IPOne (IP1 HTRF) assay, CHO-K1 cells expressing human 5-HT2A; assay type: cell-based; design: expressed in transfected cells; host or cells: CHO-K1; conditions: for activation at 0.3 µM / activation at 30 µM: CHO-K1, percentage of reference agonist α-Me-5-HT at its EC100; for EC50: CHO-K1, human 5-HT2A
Procedure: (§1) IPOne assays were performed using stably-transfected cell lines (CHO-K1) expressing human 5-HT2A or 5-HT2B receptors. Upon activation of these receptors, Gq-mediated myo-Inositol 1 phosphate (IP1) production is detected by a Homogeneous Time-Resolved Fluorescence (HTRF) competitive immunoassay, whereby an IP1 analog coupled to a fluorophore (acceptor) competes with endogenous IP1 for binding to a labeled anti-IP1 antibody (donor). The resulting signal is inversely proportional to the concentration of IP1 in the sample. Cells were incubated with an IP1 inhibitor (to prevent degradation and allow detection) and either reference compound or test compound. α-Me-5-HT was used as the assay reference agonist. Activation of 5-HT2A or 5-HT2B receptors was measured via accumulation of IP1 detected by HTRF. Agonist activity of test compounds was expressed as a percentage of the activity of the reference agonist at its EC100 concentration.

5-HT2B = 5-HT2B (Homo sapiens, UniProt P41595); assay: IPOne (IP1 HTRF) assay, CHO-K1 cells expressing human 5-HT2B; assay type: cell-based; design: expressed in transfected cells; host or cells: CHO-K1; conditions: for activation at 0.3 µM / activation at 30 µM: CHO-K1, percentage of reference agonist α-Me-5-HT at its EC100; for EC50: CHO-K1, human 5-HT2B
Procedure: as §1

Sequence of 5-HT2B (P41595 whole entry): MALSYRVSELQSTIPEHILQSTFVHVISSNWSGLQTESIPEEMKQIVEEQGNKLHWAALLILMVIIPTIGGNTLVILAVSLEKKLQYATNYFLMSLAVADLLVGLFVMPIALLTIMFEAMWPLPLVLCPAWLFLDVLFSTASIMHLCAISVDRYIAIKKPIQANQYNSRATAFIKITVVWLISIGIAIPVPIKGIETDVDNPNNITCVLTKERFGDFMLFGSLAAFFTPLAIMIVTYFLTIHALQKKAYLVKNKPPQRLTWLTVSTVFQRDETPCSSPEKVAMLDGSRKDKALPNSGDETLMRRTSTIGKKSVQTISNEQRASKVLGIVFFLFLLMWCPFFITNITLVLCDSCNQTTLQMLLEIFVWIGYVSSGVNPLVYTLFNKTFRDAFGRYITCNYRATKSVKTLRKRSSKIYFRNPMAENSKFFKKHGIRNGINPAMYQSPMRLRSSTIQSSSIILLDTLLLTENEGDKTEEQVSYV
Sequence of 5-HT2A (P28223 whole entry): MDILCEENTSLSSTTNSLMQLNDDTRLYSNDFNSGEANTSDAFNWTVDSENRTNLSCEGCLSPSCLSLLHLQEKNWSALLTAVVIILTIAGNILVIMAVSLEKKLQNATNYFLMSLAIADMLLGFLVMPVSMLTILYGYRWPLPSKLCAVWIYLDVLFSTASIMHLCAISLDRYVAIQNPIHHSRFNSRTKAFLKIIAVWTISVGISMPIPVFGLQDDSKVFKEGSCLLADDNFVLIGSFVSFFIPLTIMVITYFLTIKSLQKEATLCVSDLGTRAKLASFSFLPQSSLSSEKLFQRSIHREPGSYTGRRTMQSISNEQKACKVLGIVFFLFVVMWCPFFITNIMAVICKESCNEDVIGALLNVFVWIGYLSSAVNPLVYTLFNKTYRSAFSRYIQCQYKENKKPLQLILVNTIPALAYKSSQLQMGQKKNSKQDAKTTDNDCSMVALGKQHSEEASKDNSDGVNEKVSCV

Compound	activation at 0.3 µM (5-HT2A) [%]	activation at 30 µM (5-HT2A) [%]	activation at 0.3 µM (5-HT2B) [%]	activation at 30 µM (5-HT2B) [%]	EC50 (5-HT2A) [nM]	EC50 (5-HT2B) [nM]
OC[C@H]1CCN1CCc1c[nH]c2ccccc12 [Compound 53, (R)-(1-(2-(1H-indol-3-yl)ethyl)azetidin-2-yl)methanol]	3.07	70.7	16.3	74.7	–	–
COc1ccc2[nH]c(Br)c(CCN3CCCC3CO)c2c1 (stereo not drawn) [Compound 72, (1-(2-(2-bromo-5-methoxy-1H-indol-3-yl)ethyl)pyrrolidin-2-yl)methanol]	5.63	37.6	13.5	41.7	–	–
COC(=O)[C@]1(C)CCCN1CCc1c[nH]c2ccccc12 [Compound 92, methyl (S)-1-(2-(1H-indol-3-yl)ethyl)-2-methylpyrrolidine-2-carboxylate]	-16.3	-6.28	-2.23	15.4	–	–
OCC1CCCN1CCc1c(Cl)[nH]c2ccc(F)cc12 (stereo not drawn) [Compound 70, (1-(2-(2-chloro-5-fluoro-1H-indol-3-yl)ethyl)pyrrolidin-2-yl)methanol]	61	97.7	55.1	99.8	–	–
OC[C@@H]1CCCN1CCc1c[nH]c2ccc(O)cc12 [Compound 51]	99	101	85.7	99.1	45.6	86.7
OC[C@@H]1CCCN1CCc1c[nH]c2ccc(F)cc12 [Compound 59, (S)-(1-(2-(5-fluoro-1H-indol-3-yl)ethyl)pyrrolidin-2-yl)methanol]	86.3	89.4	79.8	85.7	7.7	8.9
OCC1CCCN1CCc1c(Br)[nH]c2ccc(F)cc12 (stereo not drawn) [Compound 69, (1-(2-(2-bromo-5-fluoro-1H-indol-3-yl)ethyl)pyrrolidin-2-yl)methanol]	15.1	83.8	27.6	90.5	–	–
COc1ccc2[nH]cc(CCN3CCCC3CO)c2c1 (stereo not drawn) [Compound 30]	97.8	100	89.4	98.8	–	–
C[C@@H](O)[C@@H]1CCCN1CCc1c[nH]c2ccccc12 [Compound 75]	23.4	87.3	5.88	80.2	–	–
CC[C@H](O)[C@@H]1CCCN1CCc1c[nH]c2ccccc12 [Compound 78, (S)-1-((S)-1-(2-(1H-indol-3-yl)ethyl)pyrrolidin-2-yl)propan-1-ol]	1.39	64.3	5.16	82.2	–	–
COc1ccc2[nH]cc(CCN3CCC[C@H]3CO)c2c1 [Compound 50]	100	103	101	101	12.5	8.8
OCC1CCCN1CCc1c[nH]c2cccc(O)c12 (stereo not drawn) [Compound 29, 3-(2-(2-(hydroxymethyl)pyrrolidin-1-yl)ethyl)-1H-indol-4-ol]	99.4	99.2	90.8	96.4	–	–
COC(=O)[C@@H]1CCCN1CCc1c[nH]c2ccccc12 [Compound 33, methyl (2-(1H-indol-3-yl)ethyl)-L-prolinate]	44	94.4	33.9	91.3	806	456
NCC1CCCN1CCc1c[nH]c2ccccc12 (stereo not drawn) [Compound 22]	10.2	99	20	99.6	–	–
OC1CCN(CCc2c[nH]c3ccccc23)C1 (stereo not drawn) [Compound 7, 1-(2-(1H-indol-3-yl)ethyl)pyrrolidin-3-ol]	7.01	42	5.71	28.7	–	–
CC(C)(O)[C@@H]1CCCN1CCc1c[nH]c2ccccc12 [Compound 74, 2-[(2S)-1-[2-(1H-indol-3-yl)ethyl]pyrrolidin-2-yl] propan-2-ol]	80.2	102	63	100	247	526

Compound	activation at 0.3 µM (5-HT2A) [%]	activation at 30 µM (5-HT2A) [%]	activation at 0.3 µM (5-HT2B) [%]	activation at 30 µM (5-HT2B) [%]	EC50 (5-HT2A) [nM]	EC50 (5-HT2B) [nM]
OC[C@@H]1CCN1CCc1c[nH]c2ccccc12 [Compound 54, (S)-(1-(2-(1H-indol-3-yl)ethyl)azetidin-2-yl)methanol]	81.1	101	62	97.9	249	780
OC[C@@H]1CCCN1CCc1c[nH]c2ccccc12 [Compound 31, (S)-(1-(2-(1H-indol-3-yl)ethyl)pyrrolidin-2-yl)methanol]	76.5	99.5	54.6	97	62.1	126
CC(C)OC(=O)[C@@H]1CCCN1CCc1c[nH]c2ccccc12 [Compound 55, isopropyl (2-(1H-indol-3-yl)ethyl)-L-prolinate]	68.1	101	37.7	102	358	1040
C[C@@]1(CO)CCCN1CCc1c[nH]c2ccccc12 [Compound 93, (S)-(1-(2-(1H-indol-3-yl)ethyl)-2-methylpyrrolidin-2-yl)methanol]	-11.3	1.82	-0.54	25.6	–	–
COc1cccc2[nH]c(Br)c(CCN3CCCC3CO)c12 (stereo not drawn) [Compound 67, (1-(2-(2-bromo-4-methoxy-1H-indol-3-yl)ethyl)pyrrolidin-2-yl)methanol]	27.2	95.9	19.2	87.1	–	–
OC[C@@H]1CCCN1CCc1c[nH]c2ncccc12 [Compound 95, (S)-(1-(2-(1H-pyrrolo[2,3-b]pyridin-3-yl)ethyl)pyrrolidin-2-yl)methanol]	0.81	84.3	1.09	9.66	–	–
OC[C@@H]1CCCN1CCc1c(Br)[nH]c2ccccc12 [Compound 57, (S)-(1-(2-(2-bromo-1H-indol-3-yl)ethyl)pyrrolidin-2-yl)methanol]	4.69	30.9	-1.03	73	–	–
COC(=O)[C@@H]1CCCN1CCc1c[nH]c2ncccc12 [Compound 94, methyl (2-(1H-pyrrolo[2,3-b]pyridin-3-yl)ethyl)-L-prolinate]	0.14	54.3	-0.22	2.48	–	–
C[C@H](O)[C@@H]1CCCN1CCc1c[nH]c2ccccc12 [Compound 73, (S)-1-((S)-1-(2-(1H-indol-3-yl)ethyl)pyrrolidin-2-yl)ethan-1-ol]	61.9	101	61.2	104	557	958
COc1ccc(Br)c2[nH]cc(CCN3CCCC3CO)c12 (stereo not drawn) [Compound 42, (1-(2-(7-bromo-4-methoxy-1H-indol-3-yl)ethyl)pyrrolidin-2-yl)methanol]	78.5	94.1	22	46.2	–	–
COC(=O)[C@H]1CCCN1CCc1c[nH]c2ccccc12 [Compound 34, methyl (2-(1H-indol-3-yl)ethyl)-D-prolinate]	4.6	29.9	1.34	35.1	–	–
COc1cccc2[nH]cc(CCN3CCC[C@H]3CO)c12 [Compound 48, (S)-(1-(2-(4-methoxy-1H-indol-3-yl)ethyl)pyrrolidin-2-yl)methanol]	83.2	90.9	62	83.4	11.2	22.2
CCOC(=O)[C@@H]1CCCN1CCc1c[nH]c2ccccc12 [Compound 52, ethyl (2-(1H-indol-3-yl)ethyl)-L-prolinate]	24	101	25.4	99.2	888	2560
OC[C@@H]1CCCN1CCc1c[nH]c2ccc(OC(F)(F)F)cc12 [Compound 61, (S)-(1-(2-(5-(trifluoromethoxy)-1H-indol-3-yl)ethyl)pyrrolidin-2-yl)methanol]	46.1	88.3	37.5	76.2	76	57.7
OC[C@@H]1CCCN1CCc1c[nH]c2cccc(O)c12 [Compound 49, (S)-3-(2-(2-(hydroxymethyl)pyrrolidin-1-yl)ethyl)-1H-indol-4-ol]	99.2	100	92	99.1	22.5	43.2
